Reference: patent US8637558B2 (Industry-Academic Cooperation Foundation, Chosun University, priority 2008, dated 2014)

Molecular target: 15-PGDH (Homo sapiens (Human), UniProt P15428)
Experiment: Assay for the activities of 15-PGDH inhibitors (formation of NADH at 340 nm)
Assay type: biochemical
Conditions: purified 15-PGDH enzyme, 21 μM PGE2, 0.25 mM NAD+, pH 7.5; concentration inhibiting 50% of 15-PGDH activity
Description: <1-1> Expression and Purification of 15-PGDH
A 15-PGDH cDNA plasmid containing BamHI and EcoRI sites of the pGES-2T expression vector was used to transform Escherichia coli BL-21 lysS in accordance with the ordinarily used in the art. The transformed cells were grown in 500 mL LB medium containing 50 μg/mL ampicillin at 37° C. while being stirred at 220 rpm until the OD600 reached 0.6. Isopropyl β-D-thiogalactoside (1 mM) was added and the cells were allowed to grow for 12 hours at 25° C. Then, the pellets were harvested by centrifugation at 4000×g for 30 minutes at 4° C. The cell pallets were resuspended in 20 mL cell lysis buffer (1×PBS buffer (pH 7.4) containing 1 mM EDTA and 0.1 mM DTT) and sonicated (14×10 s at 4° C.). The disrupted cells were centrifuged at 4000×g for 20 minutes at 4° C. The supernatant was loaded slowly on a glutathione-sepharose 4B column, which was equilibrated at 4° C. with a cell lysis buffer (1×PBS buffer (pH 7.4) containing 1 mM EDTA and 0.1 mM DTT). The column was washed with the lysis buffer until OD280 reached below 0.005. Then, 15-PGDH was eluted from the glutathione-sepharose 4B column at room temperature for 5 minutes by using the elution buffer (50 mM Tris-HCl (pH 8.0) containing 10 mM reduced glutathione, 1 mM EDTA and 0.1 mM DTT). The concentration and the purity of the purified enzyme were determined by SDS-PAGE.
<1-2> Assay for the Activities of 15-PGDH Inhibitors
The absorbance of the reaction mixture was recorded at 340 nm so that the activities of the derivatives according to the present invention as 15-PGDH inhibitors were determined from a standard curve prepared from the absorbance of various concentrations of NADH at 340 nm.

Chain of 15-PGDH (P15428 whole entry): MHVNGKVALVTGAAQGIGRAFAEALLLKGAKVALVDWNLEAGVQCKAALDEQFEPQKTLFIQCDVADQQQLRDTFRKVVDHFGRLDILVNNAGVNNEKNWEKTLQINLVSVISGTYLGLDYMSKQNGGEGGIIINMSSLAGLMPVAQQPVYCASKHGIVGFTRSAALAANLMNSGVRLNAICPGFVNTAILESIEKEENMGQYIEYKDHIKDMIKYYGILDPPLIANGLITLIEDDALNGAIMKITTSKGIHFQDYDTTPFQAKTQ

Row | Structure (SMILES) | IC50
1 | O=C1NC(=O)C(Cc2ccc(OCC3CCCCC3)c(Cl)c2)S1 (centres unmarked) | 526 nM
2 | O=C1NC(=O)C(Cc2ccc(OCC3CCCCC3)c(Cl)c2)S1 (single isomer, unassigned) | 125 nM
3 | CC(C)OCCOc1ccc(/C=C2\SC(=O)NC2=O)cc1 [Derivative 1, 5-(4-(2-isopropoxyethoxy)benzylidene)thiazolidine-2,4-dione] | 961 nM
4 | O=C1NC(=O)/C(=C/c2ccc(OCCN3CCOCC3)cc2)S1 [Derivative 2, 5-(4-(2-morpholinoethoxy)benzylidene)thiazolidine-2,4-dione] | 515 nM
5 | O=C1NC(=O)/C(=C/c2ccc(OCCc3cccs3)cc2)S1 [Derivative 3, 5-(4-(2-(thiophen-2-yl)ethoxy)benzylidene)thiazolidine-2,4-dione] | 95.9 nM
6 | O=C1NC(=O)/C(=C/c2ccc(OCCc3ccsc3)cc2)S1 [Derivative 4, 5-(4-(2-(thiophen-3-yl)ethoxy)benzylidene)thiazolidine-2,4-dione] | 148 nM
7 | O=C1NC(=O)/C(=C/c2ccc(OCCN3CCS(=O)(=O)CC3)cc2)S1 [Derivative 5, 5-[4-(2-thiomorpholine-1,1-dioxideethoxy)benzylidene]thiazolidine-2,4-dione] | 1370 nM
8 | O=C1NC(=O)/C(=C/c2ccc(OCCc3ccccn3)cc2)S1 [Derivative 6, 5-(4-(2-(pyridin-2-yl)ethoxy)benzylidene)thiazolidine-2,4-dione] | 592 nM
9 | O=C1NC(=O)/C(=C/c2ccc(OCCN3CCCCC3)cc2)S1 [Derivative 14, 5-(4-(2-(piperidin-1-yl)ethoxy)benzylidene)thiazolidine-2,4-dione] | 1430 nM
10 | Cc1ncsc1CCOc1ccc(/C=C2\SC(=O)NC2=O)cc1 [Derivative 19, 5-(4-(2-(4-methylthiazol-5-yl)ethoxy)benzylidene)thiazolidine-2,4-dione] | 1170 nM
11 | O=C1NC(=O)/C(=C/c2ccc(OCCCN3CCS(=O)(=O)CC3)cc2)S1 [Derivative 21, 5-[4-(3-thiomorpholine-1,1-dioxidepropoxy)benzylidene]-thiazolidine-2,4-dione] | 3040 nM
12 | O=C1NC(=O)/C(=C/c2ccc(OCc3cccs3)cc2)S1 [Derivative 22, 5-(4-(thiophen-2-ylmethoxy)benzylidene)thiazolidine-2,4-dione] | 251 nM
13 | O=C1NC(=O)/C(=C/c2ccc(OCc3ccsc3)cc2)S1 [Derivative 23, 5-(4-(thiophen-3-ylmethoxy)benzylidene)thiazolidine-2,4-dione] | 392 nM
14 | O=C1NC(=O)/C(=C/c2ccc(OCc3ccco3)cc2)S1 [Derivative 25, 5-(4-(furan-2-ylmethoxy)benzylidene)thiazolidine-2,4-dione] | 1880 nM
15 | Cc1ccc(COc2ccc(/C=C3\SC(=O)NC3=O)cc2)cc1 [Derivative 27, 5-(4-(4-methylbenzyloxy)benzylidene)thiazolidine-2,4-dione] | 255 nM
16 | COc1ccc(COc2ccc(/C=C3\SC(=O)NC3=O)cc2)cc1 [Derivative 28, 5-(4-(4-methoxybenzyloxy)benzylidene)thiazolidine-2,4-dione] | 728 nM
17 | O=C1NC(=O)/C(=C/c2ccc(OCc3ccc4c(c3)OCO4)cc2)S1 [Derivative 29, 5-(4-(benzo[d][1,3]dioxol-5-ylmethoxy)benzylidene)thiazolidine-2,4-dione] | 310 nM
18 | O=C1NC(=O)/C(=C/c2ccc(OCCCCC3CCCCC3)c(Cl)c2)S1 [Derivative 33, 5-(3-chloro-4-(4-cyclohexylbutoxy)benzylidene)thiazolidine-2,4-dione] | 26.3 nM
19 | O=C1NC(=O)/C(=C/c2ccc(OCc3ccc(CCl)cc3)cc2)S1 [Derivative 36, 5-(4-(4-(chloromethyl)benzyloxy)benzylidene)thiazolidine-2,4-dione] | 124 nM
20 | CC1CCC(COc2ccc(/C=C3\SC(=O)NC3=O)cc2)CC1 (centres unmarked) [Derivative 37, 5-(4-((4-methylcyclohexyl)methoxy)benzylidene)thiazolidine-2,4-dione] | 66.4 nM
21 | O=C1NC(=O)/C(=C/c2ccc(O)cc2)S1 [Derivative 39, 5-(4-hydroxybenzylidene)thiazolidine-2,4-dione] | 10100 nM
22 | COc1ccc(/C=C2\SC(=O)NC2=O)cc1 [Derivative 40, 5-(4-methoxybenzylidene)thiazolidine-2,4-dione] | 5670 nM
23 | CCOc1ccc(/C=C2\SC(=O)NC2=O)cc1 [Derivative 41, 5-(4-ethoxybenzylidene)thiazolidine-2,4-dione] | 5820 nM
24 | CC1(COc2ccc(/C=C3\SC(=O)NC3=O)cc2)CCCCC1 [Derivative 43, 5-(4-((1-methylcyclohexyl)methoxy)benzylidene)thiazolidine-2,4-dione] | 547 nM
25 | O=C1NC(=O)/C(=C/c2ccc(OCc3ccccc3)cc2)S1 [Derivative 44, 5-(4-(benzyloxy)benzylidene)thiazolidine-2,4-dione] | 1040 nM

Further lines, results first:

Row | IC50 | Structure (SMILES)
26 | 2610 nM | O=C1NC(=O)/C(=C/c2ccc(OCCNC3CCCCC3)cc2)S1 [Derivative 7, 5-(4-(2-(cyclohexylamino)ethoxy)benzylidene)thiazolidine-2,4-dione]
27 | 23 nM | COc1cc(/C=C2\SC(=O)NC2=O)ccc1OCCC1CCCCC1 [Derivative 8, 5-(4-(2-cyclohexylethoxy)-3-methoxybenzylidene)thiazolidine-2,4-dione]
28 | 55 nM | Cc1cc(/C=C2\SC(=O)NC2=O)ccc1OCCC1CCCCC1 [Derivative 9, 5-(4-(2-cyclohexylethoxy)-3-methylbenzylidene)thiazolidine-2,4-dione]
29 | 94.5 nM | COc1cc(/C=C2\SC(=O)NC2=O)cc(OC)c1OCCC1CCCCC1 [Derivative 10, 5-(4-(2-cyclohexylethoxy)-3,5-dimethoxybenzylidene)thiazolidine-2,4-dione]
30 | 7.2 nM | O=C1NC(=O)/C(=C/c2ccc(OCCC3CCCCC3)c(Cl)c2)S1 [Derivative 11, 5-(3-chloro-4-(2-cyclohexylethoxy)benzylidene)thiazolidine-2,4-dione]
31 | 327 nM | O=C1NC(=O)/C(=C/c2ccc(OCCCC3CCCCC3)c([N+](=O)[O-])c2)S1 [Derivative 12, 5-(4-(3-cyclohexylpropoxy)-3-nitrobenzylidene)thiazolidine-2,4-dione]
32 | 689 nM | O=C1NC(=S)/C(=C/c2ccc(OCCC3CCCCC3)cc2)S1 [Derivative 13, 5-(4-(2-cyclohexylethoxy)benzylidene)-4-thioxothiazolidin-2-one]
33 | 6.6 nM | O=C1NC(=O)/C(=C/c2ccc(OCCC3CCCCC3)c(Br)c2)S1 [Derivative 15, 5-(3-bromo-4-(2-cyclohexylethoxy)benzylidene)thiazolidine-2,4-dione]
34 | 71.9 nM | O=C1NC(=O)/C(=C/c2ccc(OCCC3CCCCC3)c(C(F)(F)F)c2)S1 [Derivative 16, 5-(4-(2-cyclohexylethoxy)-3-(trifluoromethyl)benzylidene)thiazolidine-2,4-dione]
35 | 19.6 nM | O=C1NC(=O)/C(=C/c2ccc(OCCC3CCCCC3)cc2Cl)S1 [Derivative 18, 5-(2-chloro-4-(2-cyclohexylethoxy)benzylidene)thiazolidine-2,4-dione]
36 | 50.8 nM | O=C1NC(=O)/C(=C/c2ccc(OCCC3CCCCC3)c(F)c2)S1 [Derivative 20, 5-(4-(2-cyclohexylethoxy)-3-fluorobenzylidene)thiazolidine-2,4-dione]
37 | 115 nM | O=C1NC(=O)/C(=C/c2ccc(OCCC3CCCC3)cc2)S1 [Derivative 24, 5-(4-(2-cyclopentylethoxy)benzylidene)thiazolidine-2,4-dione]
38 | 48.9 nM | O=C1NC(=O)/C(=C/c2ccc(OC3CCCCC3)c(Cl)c2)S1 [Derivative 30, 5-(3-chloro-4-(cyclohexyloxy)benzylidene)thiazolidine-2,4-dione]
39 | 26.9 nM | O=C1NC(=O)/C(=C/c2ccc(OCC3CCCCC3)c(Cl)c2)S1 [Derivative 31, 5-(3-chloro-4-(cyclohexylmethoxy)benzylidene)thiazolidine-2,4-dione]
40 | 10.3 nM | O=C1NC(=O)/C(=C/c2ccc(OCCCC3CCCCC3)c(Cl)c2)S1 [Derivative 32, 5-(3-chloro-4-(3-cyclohexylpropoxy)benzylidene)thiazolidine-2,4-dione]
41 | 17.9 nM | O=C1NC(=O)/C(=C/c2cccc(OCCC3CCCCC3)c2Cl)S1 [Derivative 34, 5-(2-chloro-3-(2-cyclohexylethoxy)benzylidene)thiazolidine-2,4-dione]
42 | 42.5 nM | O=C1NC(=O)/C(=C/c2ccc(OCC3CCCC3)cc2)S1 [Derivative 35, 5-(4-(cyclopentylmethoxy)benzylidene)thiazolidine-2,4-dione]
43 | 217 nM | O=C1NC(=O)/C(=C/c2ccc(OCC3CCCCC3)cc2)S1 [Derivative 42, 5-(4-(cyclohexylmethoxy)benzylidene)thiazolidine-2,4-dione]
44 | 822 nM | O=C1NC(=O)/C(=C/c2ccc(OC3CCCCC3)cc2)S1 [Derivative 45, 5-(4-(cyclohexyloxy)benzylidene)thiazolidine-2,4-dione]
